In the supplement of paper PMC10307832:

What was measured:
Test in all cases: relative viability (nuclei count vs DMSO), 5 days (fraction); higher = more cells survive
[1] = compound: CC1CC(=O)N(C2=CN=C(N=C2N1C3CCCC3)NC4=C(C=C(C=C4)C(=O)NC5CCN(CC5)C)OC)C [NPK76-II-72-1] + C[C@@H](Oc1cc(-c2cnn(C3CCNCC3)c2)cnc1N)c1c(Cl)ccc(F)c1Cl [Crizotinib] (partner 1 µM)
Method in brief: (§1)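 Lung cancer cell lines were pin-tool dosed in 1536-well plates on the day after seeding, with either a lone drug or a fixed anchor-drug dose plus five library-drug doses (not always all listed) in √10 steps. Nuclei were counted on 4× images after 5 days. Relative viability is the ratio of treated-well to vehicle-well nuclei counts, with each value a median of duplicate plates.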

BI-2536 + Trametinib = compound: CC[C@@H]1C(=O)N(C)c2cnc(Nc3ccc(C(=O)NC4CCN(C)CC4)cc3OC)nc2N1C1CCCC1 [BI-2536] + CC(=O)Nc1cccc(-n2c(=O)n(C3CC3)c(=O)c3c(Nc4ccc(I)cc4F)n(C)c(=O)c(C)c32)c1 [Trametinib] (partner 0.02 µM)
Method in brief: as §1

BI-2536 + Palbociclib = compound: CC[C@@H]1C(=O)N(C)c2cnc(Nc3ccc(C(=O)NC4CCN(C)CC4)cc3OC)nc2N1C1CCCC1 [BI-2536] + CC(=O)c1c(C)c2cnc(Nc3ccc(N4CCNCC4)cn3)nc2n(C2CCCC2)c1=O [Palbociclib] (partner 0.5 µM)
Method in brief: as §1

BI-2536 + Vorinostat = compound: CC[C@@H]1C(=O)N(C)c2cnc(Nc3ccc(C(=O)NC4CCN(C)CC4)cc3OC)nc2N1C1CCCC1 [BI-2536] + O=C(CCCCCCC(=O)Nc1ccccc1)NO [Vorinostat] (partner 1 µM)
Method in brief: as §1

For UMC-11, which relative viability ([1]; first compound 0.01 µM) is on record?
Its relative viability is 0.622.

What about the relative viability ([1]; first compound 0.03162 µM) of the same cell line?
The relative viability was 0.574.

And the relative viability ([1]; first compound 0.1 µM)?
Its relative viability is 0.669.

What about the relative viability ([1]; first compound 0.3162 µM) of the same cell line?
Its relative viability is 0.532.

And the relative viability ([1]; first compound 1 µM)?
The relative viability was 0.707.

And the relative viability (BI-2536 + Trametinib; first compound 0.01 µM)?
Its relative viability is 0.489.

What about the relative viability (BI-2536 + Trametinib; first compound 0.03162 µM) of the same cell line?
Its relative viability is 0.637.

And the relative viability (BI-2536 + Trametinib; first compound 0.1 µM)?
The relative viability was 0.173.

What about the relative viability (BI-2536 + Trametinib; first compound 0.3162 µM) of the same cell line?
Its relative viability is 0.175.

What about the relative viability (BI-2536 + Trametinib; first compound 1 µM) of the same cell line?
The relative viability was 0.521.

What about the relative viability (BI-2536 + Palbociclib; first compound 0.01 µM) of the same cell line?
Its relative viability is 0.295.

What about the relative viability (BI-2536 + Palbociclib; first compound 0.03162 µM) of the same cell line?
The relative viability was 0.295.

And the relative viability (BI-2536 + Palbociclib; first compound 0.1 µM)?
Its relative viability is 0.228.

And the relative viability (BI-2536 + Palbociclib; first compound 0.3162 µM)?
The relative viability was 0.223.

What about the relative viability (BI-2536 + Palbociclib; first compound 1 µM) of the same cell line?
Its relative viability is 0.23.

And the relative viability (BI-2536 + Vorinostat; first compound 0.01 µM)?
The relative viability was 0.343.

And the relative viability (BI-2536 + Vorinostat; first compound 0.03162 µM)?
The relative viability was 0.315.

And the relative viability (BI-2536 + Vorinostat; first compound 0.1 µM)?
Its relative viability is 0.187.

What about the relative viability (BI-2536 + Vorinostat; first compound 0.3162 µM) of the same cell line?
Its relative viability is 0.18.

And the relative viability (BI-2536 + Vorinostat; first compound 1 µM)?
The relative viability was 0.145.
